The values below come from patent US20060128729A1, “Novel bicyclic heterocyclic compounds, process for their preparation and compositions containing them” (priority 2004, published 2006).

Where a name gives a salt, the structure may show the parent alone.

`CCCc1nn(C)c2c(Nc3ccc(Cl)c(OC)c3)nc(-c3cccs3)nc12.Cl`: the melting point lay in the range of 200 to 204 °C. Next, `CCCc1nn(C)c2c(Nc3ccc4c(c3)OCO4)nc(-c3cccs3)nc12.Cl`: 246 to 250 °C. Next, `COc1cc(Nc2nc(-c3ccccc3)nc3c(C)nn(C)c23)ccc1Cl.Cl`: 222 to 224 °C; `Cc1nn(C)c2c(Nc3ccc(O)c(Cl)c3)nc(-c3ccc(F)cc3)nc12.Cl`: 238 to 240 °C. Next, `CCCc1nn(C)c2c(Nc3ccc(OC)c(F)c3)nc(-c3ccccc3OCC)nc12.Cl`: 194 to 196 °C; `CCCc1nn(C)c2c(Nc3ccc(O)c(Cl)c3)nc(-c3ccccc3)nc12.Cl`: 180 °C; `CCCc1nn(C)c2c(Nc3ccc(Cl)c(OC)c3)nc(-c3ccccc3)nc12.Cl`: 228 to 230 °C. `CCCc1nn(C)c2c(Nc3ccc(F)cc3)nc(-c3ccc(F)cc3)nc12.Cl` displayed a melting point of 161 to 164 °C. Under `COc1cc(Nc2nc(-c3cccs3)nc3c(C)nn(C)c23)ccc1Cl.Cl` stands > 240 °C; under `Cc1nn(C)c2c(Nc3ccc(O)c(Cl)c3)nc(-c3cccs3)nc12.Cl`, > 240 °C. Next, `Cc1nn(C)c2c(Nc3cccc(F)c3)nc(-c3ccccc3)nc12.Cl`: 218 to 220 °C.

The molecule `CCCc1nn(C)c2c(Nc3cccc(C(F)(F)F)c3)nc(-c3ccc(F)cc3)nc12.Cl` displayed a melting point of 220 to 222 °C.

Consider `CCCc1nn(C)c2c(Nc3ccc(OC)c(OC)c3)nc(-c3ccc(F)cc3)nc12.Cl`, for which the melting point fell in the range of 178 to 181 °C.

In turn, `Cc1nn(C)c2c(Nc3ccc(Cl)nc3)nc(-c3ccc(F)cc3)nc12.Cl` returned a melting point of 248 to 250 °C.

With `CC(=O)Nc1cc(Nc2nc(-c3ccc(F)cc3)nc3c(C)nn(C)c23)ccc1O.Cl`, the melting point fell in the range of 250 to 252 °C. Next, `Cc1nn(C)c2c(Nc3ccc(C(N)=O)cc3)nc(-c3ccc(F)cc3)nc12.Cl`: 272 to 274 °C; `CCCc1nn(C)c2c(Nc3ccc(O)c(Cl)c3)nc(-c3ccc(F)cc3)nc12.Cl`: 200 to 202 °C. Under `CCCc1nn(C)c2c(Nc3ccc(OC)c(F)c3)nc(C(F)(F)F)nc12.Cl` stands 136 to 138 °C. In turn, `CCCc1nn(C)c2c(Nc3ccc(Cl)c(OC)c3)nc(-c3ccc(F)cc3)nc12.Cl` gave a melting point of 230 to 232 °C.

The molecule `CCCc1nn(C)c2c(Nc3ccc(O)c(F)c3)nc(-c3ccc(F)cc3)nc12.Cl` registered a melting point of 161 to 162 °C. Molecule `CCCc1nn(C)c2c(Oc3ccc(F)cc3)nc(-c3ccccc3)nc12` had a melting point of 126 to 128 °C.

The molecule `Cc1nn(C)c2cc(-c3ccc(F)cc3)nc(Nc3cccc(C(F)(F)F)c3)c12.Cl` yielded a melting point of 220 to 222 °C. Under `Cc1nn(C)c2cc(-c3ccc(F)cc3)nc(Nc3ccc(Cl)nc3)c12.Cl` stands 215 to 218 °C.

In the case of `Cc1nn(C)c2cc(-c3ccc(F)cc3)nc(Nc3ccc(OC(F)(F)F)cc3)c12.Cl`, the melting point is 248 to 250 °C. Under `CNS(=O)(=O)c1ccc(Nc2nc(-c3ccc(F)cc3)cc3c2c(C)nn3C)cc1.Cl` stands 293 to 295 °C; under `Cl.Fc1ccc(-c2nc(Nc3cccc(F)c3)c3cnn(-c4ccccc4)c3n2)cc1`, 210 to 213 °C; under `Cl.Fc1ccc(-c2nc(Nc3ccc(OC(F)(F)F)cc3)c3cnn(-c4ccccc4)c3n2)cc1`, 220 to 222 °C.

Molecule `CCCc1nn(C)c2c(Nc3ccc(OC)c(Cl)c3)nc(-c3cccs3)nc12.Cl` had a melting point of 258 to 260 °C. Under `Cc1nn(C)c2cc(-c3ccc(F)cc3)nc(Nc3ccc(Cl)c(C(F)(F)F)c3)c12.Cl` stands 223 to 225 °C. Under `Cc1nc2cc(Nc3nc(-c4ccccc4)nc4c(C)nn(C)c34)ccc2o1.Cl` stands 272 to 274 °C. Next, `CCCc1nn(C)c2c(Nc3ccc4c(c3)OCO4)nc(-c3cccs3)nc12` (as salt: hydrochloride) [E 52, benzo[1,3]dioxol-5-yl-(1-methyl-3-propyl-5-thiophen-2-yl-1H-pyrazolo[4,3-d]pyrimidin-7-yl)-amine hydrochloride]: 246 to 250 °C. With `CCCc1nn(C)c2c(N3CCC(O)CC3)nc(-c3ccc(OC)c(OC)c3)nc12` [E 20, 1-[5-(3,4-dimethoxy-phenyl)-1-methyl-3-propyl-1H-pyrazolo[4,3-d]pyrimidin-7-yl]-piperidin-4-ol], the melting point fell in the range of 142 to 144 °C. Under `CCCc1nn(C)c2c(-c3ccc(O)c(C)c3)nc(-c3ccc(OC)c(OC)c3)nc12` [E 53, 4-[5-(3,4-dimethoxy-phenyl)-1-methyl-3-propyl-1H-pyrazolo[4,3-d]pyrimidin-7-yl]-2-methyl-phenol] stands 198 to 200 °C; under `CCCc1nn(C)c2c(-c3ccc(O)c(C)c3)nc(-c3ccc(OC)c(O)c3)nc12` [E 54, 4-[5-(3-hydroxy,4-methoxy-phenyl)-1-methyl-3-propyl-1H-pyrazolo[4,3-d]pyrimidin-7-yl]-2-methyl-phenol], 180 to 182 °C. Next, `CCCc1nn(C)c2c(-c3ccc(O)c(Cl)c3)nc(-c3ccc(F)cc3)nc12` [E 55, 2-chloro-4-[5-(4-fluoro-phenyl)-1-methyl-3-propyl-1H-pyrazolo[4,3-d]pyrimidin-7-yl]-phenol]: 182 to 184 °C; `CCCc1nn(C)c2c(-c3ccc(O)c(C)c3)nc(-c3ccccc3)nc12` [E 57, 2-methyl-4-(1-methyl-5-phenyl-3-propyl-1H-pyrazolo[4,3-d]pyrimidin-7-yl)-phenol]: 204 to 206 °C; `CCCc1nn(C)c2c(-c3ccc(OC)c(C)c3)nc(-c3ccc(F)cc3)nc12` [E 58, 5-(4-fluoro-phenyl)-7-(4-methoxy-3-methyl-phenyl)-1-methyl-3-propyl-1H-pyrazolo[4,3-d]pyrimidine]: 136 to 138 °C. Next, `CCCc1nn(C)c2c(-c3ccc(OC)c(F)c3)nc(-c3ccc(F)cc3)nc12` [E 59, 7-(3-fluoro-4-methoxy-phenyl)-5-(4-fluoro-phenyl)-1-methyl-3-propyl-1H-pyrazolo[4,3-d]pyrimidine]: 174 to 176 °C; `CCCc1nn(C)c2c(-c3ccc(OC)c(C)c3)nc(-c3ccccc3)nc12` [E 60, 7-(4-methoxy-3-methyl-phenyl)-1-methyl-5-phenyl-3-propyl-1H-pyrazolo[4,3-d]pyrimidine]: 158 to 160 °C; `CCCc1nn(C)c2c(-c3ccc(OC)c(F)c3)nc(-c3ccccc3)nc12` [E 61, 7-(3-fluoro-4-methoxy-phenyl)-1-methyl-5-phenyl-3-propyl-1H-pyrazolo[4,3-d]pyrimidine]: 158 to 160 °C. Consider `CCCc1nn(C)c2c(-c3ccc(SC)cc3)nc(-c3ccc(F)cc3)nc12` [E 62, 5-(4-fluoro-phenyl)-1-methyl-7-(4-methylsulfanyl-phenyl)-3-propyl-1H-pyrazolo[4,3-d]pyrimidine], for which the melting point was 114 to 116 °C.

In turn, `CCCc1nn(C)c2c(-c3ccc(C)cc3)nc(-c3ccc(F)cc3)nc12` [E 63, 5-(4-fluoro-phenyl)-1-methyl-3-propyl-7-p-tolyl-1H-pyrazolo[4,3-d]pyrimidine] had a melting point of 148 to 150 °C. Under `CCCc1nn(C)c2c(-c3ccccc3)nc(-c3ccc(F)cc3)nc12` [E 64, 5-(4-fluoro-phenyl)-1-methyl-7-phenyl-3-propyl-1H-pyrazolo[4,3-d]pyrimidine] stands 115 to 118 °C; under `Cc1nn(C)c2c(-c3ccc4c(c3)OCO4)nc(-c3ccccc3)nc12` [E 65, 7-benzo[1,3]dioxol-5-yl-1,3-dimethyl-5-phenyl-1H-pyrazolo[4,3-d]pyrimidine], 142 to 144 °C; under `Cc1nn(C)c2c(-c3ccccc3)nc(-c3ccc(F)cc3)nc12` [E 66, 5-(4-fluoro-phenyl)-1,3-dimethyl-7-phenyl-1H-pyrazolo[4,3-d]pyrimidine], 150 to 152 °C. Next, `Cc1nn(C)c2c(-c3cccc(S(C)(=O)=O)c3)nc(-c3ccccc3)nc12` [E 67, 7-(3-methanesulfonyl-phenyl)-1,3-dimethyl-5-phenyl-1H-pyrazolo[4,3-d]pyrimidine]: 210 to 212 °C; `Cc1nn(C)c2c(-c3cccc(S(C)(=O)=O)c3)nc(-c3ccc(F)cc3)nc12` [E 68, 5-(4-fluoro-phenyl)-7-(3-methanesulfonyl-phenyl)-1,3-dimethyl-1H-pyrazolo[4,3-d]pyrimidine]: 176 to 178 °C. Under `CCCc1nn(C)c2c(-c3ccc(S(C)(=O)=O)cc3)nc(-c3ccc(F)cc3)nc12` [E 69, 5-(4-fluoro-phenyl)-7-(4-methanesulfonyl-phenyl)-1-methyl-3-propyl-1H-pyrazolo[4,3-d]pyrimidine] stands 208 to 210 °C; under `CCCc1nn(C)c2c(C#Cc3ccccc3)nc(-c3ccc(F)cc3)nc12` [E 70, 5-(4-fluoro-phenyl)-1-methyl-7-phenylethynyl-3-propyl-1H-pyrazolo[4,3-d]pyrimidine], 156 to 158 °C. `CCCc1nn(C)c2c(-n3ccc4ccccc43)nc(-c3ccc(F)cc3)nc12` [E 88, 5-(4-fluoro-phenyl)-7-indol-1-yl-1-methyl-3-propyl-1H-pyrazolo[4,3-d]pyrimidine] gave a melting point of 114 to 116 °C. Under `CCCc1nn(C)c2c(-n3ccc4cc(Cl)ccc43)nc(-c3ccc(F)cc3)nc12` [E 89] stands 146 to 148 °C; under `Cc1nn(C)c2c(-n3ccc4ccccc43)nc(-c3ccccc3)nc12` [E 90, 7-indol-1-yl-1,3-dimethyl-5-phenyl-1H-pyrazolo[4,3-d]pyrimidine], 141 to 143 °C; under `Cc1nn(C)c2cc(-c3ccc(F)cc3)nc(-c3cccc(S(C)(=O)=O)c3)c12` [E 93, 6-(4-fluoro-phenyl)-4-(3-methanesulfonyl-phenyl)-1,3-dimethyl-1H-pyrazolo[4,3-c]pyridine], 186 to 188 °C. Next, `Cc1nn(C)c2cc(-c3ccc(F)cc3)nc(-c3ccc(OC(F)(F)F)cc3)c12` [E 94, 6-(4-fluoro-phenyl)-1,3-dimethyl-4-(4-trifluoromethoxy-phenyl)-1H-pyrazolo[4,3-c]pyridine]: 92 to 94 °C.

For orientation: melting point means the temperature, or range, at which the solid turns liquid.
